Data taken from patent US20050272682A1, “SiRNA targeting PI3K signal transduction pathway and siRNA-based therapy” (priority 2004, published 2005).

What was measured:
[1] = tested on: DSS-induced colitis mice; experiment: DSS-induced colitis in mice, intrarectal siRNA; type: in vivo
Procedure: (§1) 60 male C57/bl6 mice aged 8 weeks and weighed around 20 g were administered with 5% (w/v) dextran sulfate sodium (DSS) in drinking water for 7 days. DSS used was 5000 MW sulfated polysaccharide (Sigma Chemical Co., St. Louis, Mo.). It is believed that DSS has direct cytotoxic effects on epithelial cells, immune cell function interference, and luminal microflora. DSS-induced inflammatory bowel disease (IBD) was characterized by epithelial damage, mucosal inflammatory infiltrates, and luminal ulceration similar to ulcerative colitis (see FIG. 1, panels A and B).
(§2) A validated clinical disease activity index (DAI) (Murano, et al., 2000; Murthy, et al., 1993) ranging from a score of 0 to 4 was calculated by an investigator blinded to the protocol using the following parameters: stool consistency, presence of fecal blood, and changes in body weight (Murano, et al., 2000). The stool consistency was assessed using the following four point scale: 0, normal; 1, soft; 2, very soft but formed; and 3, liquid. The intensity of the hemoccult paper test was scored by the following scale: 0, negative; 1, faintly blue; 2, moderately blue; 3, dark blue; and 4, blood visible.
(§3) Inflammatory bowel disease (IBD) was induced in 2-month-old C57/bl6 mice using a 5% dextran sulfate sodium (DSS) solution in drinking water. siRNA directed to either p85α or Akt1 or siCONTROL was given on days 2, 3 and 4 of DSS exposure. Due to the short half-life of siRNA in vivo, siSTABLE was used which renders siRNA more resistant to degradation resulting in a half-life of 5 days. For each mouse, 5 μg of siRNA in 25 μl of transfection buffer was transferred into a sterile Eppendorf tube. In a separate sterile polystyrene tube 20 μg of DOTAP was mixed with 70 μl transfection buffer and then the siRNA mixture was transferred to the polystyrene tube containing the DOTAP and then incubated at room temperature for 30 min. Around 100 μl of the mixture was administered via the anus, by slow instillation into the lumen of the colon using a 20-gauge catheter and a 1-ml syringe. After treatment, mice were suspended head down for 30 sec. The colonic enema was performed on the second day of DSS exposure and repeated 24 and 48 h later. Cy-3 labeled siRNA were prepared for the treatment and administered as described above; mice were sacrificed at 4 and 24 hours after treatment and spleen, liver, pancreas and colon samples organs were taken and then frozen in liquid N2. Sections (6 μm) were cut with a cryostat microtome, thaw-mounted on a glass slide (cleaned with ethanol) and analyzed by fluorescent light microscopy (excitation λ=570 ηm).
Neutrophil sequestration was measured by MPO activity determination using the O-dianisidine method as previously described (Barone, et al., 1991). Whole tissue protein (100 μg) extract was used to measure the MPO activity. Activity was expressed as the amount of enzyme necessary to generate a change in absorbance of 1.0 per min per mg wet weight of tissue.
Tissue protein (100 μg) was placed in 96-well plates. Expression of IL-1β and IL-6, TNFα, and p65 NF-κB protein in whole tissue lysates was determined using anti-mouse cytokine ELISA kits from Pierce Biotechnology, Inc. (Rockford, Ill.) as previously described (Slogoff, et al., 2004). Cytokine expression of MIP-2 was determined with an anti-mouse MIP-2 ELISA purchased from Assay Designs, Inc. (Ann Arbor, Mich.). Each ELISA was performed according to the manufacturer's instructions.
Excised colons were evaluated for approximate length, for blood content, stool consistency, and general appearance of bowel wall. Histological examination was performed on three samples of the colon from each animal. The samples were fixed in 10% buffered formalin, dehydrated in ethanol, and then embedded in paraffin. Sections (4 μm) were then prepared and stained with hematoxylin and eosin.

[2] = tested on: severe acute pancreatitis mice; experiment: CMDE diet model of severe acute pancreatitis in mice; type: in vivo
Procedure: Choline and methionine deficient with ethionine (CMDE) was used to generate pancreatitis model in mice. Female Swiss-Webster mice were divided into two groups: control siRNA or p85α siRNA treatment group. Mice were injected with 10 μg control or p85α siRNA 3 days before and 1 day after starting experiment using hydrodynamic tail vein method. Mice were fed CMDE diet for 3 days. Ethionine (250 mg/kg, twice a day) was fed via gavage. After being fed with CMDE diet for 3 days, mice were fed with regular lab food. The mortality for 7 days was assessed in both groups.

[3] = tested on: PI3K/Akt pathway; experiment: Western blot of colon from mice given DSS and intrarectal siRNA; type: in vivo
Procedure: as §3
Western immunoblot analyses were performed as described previously (Wang, et al., 2002). Individual colon samples were homogenized using a Polytron power homogenizer in cell lysis buffer at 4° C. for 30 min. Lysates were clarified by centrifugation (8,000 g for 20 min at 4° C.), and sonicated for 30-45 sec on ice. Protein concentrations were determined using the method of Bradford (1976). Total protein (100 μg) was resolved on a 10% polyacrylamide gel and transferred to Immobilon-P […] membranes as described previously (Wang, et al., 2002). Filters were incubated overnight at 4° C. in blocking solution followed by a 1-h incubation with primary antibodies. Filters were washed three times in blocking solution and incubated with horseradish peroxidase-conjugated secondary antibody for 1 h. After three additional washes, the immune complexes were visualized by enhanced chemiluminescence (ECL) from Amersham (Arlington Heights, Ill.).

[4] = tested on: DSS-induced colitis mice; experiment: DSS-induced colitis in mice, wortmannin by oral gavage; type: in vivo; settings: DSS 5% 7 days, wortmannin 1.5 mg/kg oral gavage daily from day 2; day 7; DSS alone mean DAI 4; scale 0 to 4
Procedure: as §1
as §2, with “visible. […]” for “visible.”
Histology sections of large intestine were stained with H&E to evaluate degree of inflammatory changes in the mice before and after the wortmannin treatment. Neutrophil sequestration was assessed through MPO assay. […]

[5] = tested on: KM20 cells; experiment: DNA fragmentation assay (Cell Death Detection ELISA), KM20 cells; type: cell-based, human; settings: TRAIL 100 ng/mL
Procedure: (§4) Cells were transfected with pik3r1, Akt1 or scrambled siRNA. After 48 h, adherent cells were detached by rapid trypsinization, counted in a Hausser chamber and seeded at a density of 2×10^3 cells per well in 96-well flat-bottom microtiter plates and incubated in 250 μl of growth medium for 24 h at 37° C. Media were removed and either new complete media or TRAIL (100 ng/mL) was added in a final volume of 200 μL and allowed to grow for 24 h at 37° C. After treatment, DNA fragmentation was evaluated by examination of cytoplasmic histone-associated DNA fragments (mono- and oligonucleosomes) using a Cell Death Detection ELISA^Plus kit (Roche Molecular Biochemicals) according to the manufacturer's instructions and as previously described (Wang. et al., 2002). The experiments were repeated on at least 3 separate occasions.

[6] = tested on: KM12C cells; experiment: DNA fragmentation assay (Cell Death Detection ELISA), KM12C cells; type: cell-based, human; settings: TRAIL 100 ng/mL
Procedure: as §4

[7] = DSS, after day 3, values near control levels by day 7
[8] = colon, compared to DSS+control siRNA

“p85α siRNA: siSTABLE siRNA duplex to Mus musculus p85α mRNA; sense gcagcaaccgaaacaaagcuu (SEQ ID NO:2), antisense gcuuuguuucgguugcugcuu (SEQ ID NO:3) (sense GCAGCAACCGAAACAAAGCUU; antisense GCUUUGUUUCGGUUGCUGCUU; siSTABLE chemically modified siRNA, pattern not given here)” was tested, and the “gross changes in the colon associated with DSS treatment (shortening, intraluminal hemorrhage, necrosis)” value ([1]; 5 μg siRNA with DOTAP intrarectally on days 2, 3 and 4 of DSS) was “abrogated”, the “preventing the bowel shortening, mucosal wall thinning and blood in the colon (comparison of the two siRNA)” value ([1]; DSS, intrarectal siRNA) was “more effective than siRNA to Akt1” and the “disease activity index (DAI), course” value [1, 7] was “stabilized and then improved”. The “weight loss, course” value [1, 7] was “stabilized and then improved”, the “cytokine tissue levels (IL-1β, IL-6, MIP-2, TNFα)” value [1, 8] was “significantly attenuated” and the “neutrophil sequestration (MPO activity)” value [1, 8] was “significantly attenuated”. The “p65 NF-κB activity” value [1, 8] was “significantly attenuated”, the “leukocyte infiltration and mucosal damage (colonic histology)” value ([1]; compared with DSS and control siRNA) was “decreased” and the “edema and bleeding in pancreas” value ([2]; 10 μg siRNA by hydrodynamic tail vein 3 days before and 1 day after start) was “no edema and bleeding”. For the same molecule, the “mice died (mortality)” value ([2]; after 7 days) was 30%, the “Akt expression in colon” value [3] was “not altered” and the “p110δ expression in colon” value [3] was “not altered”. The “p85α expression in colon” value ([3]; normal and DSS-treated colon) was “decreased” and the “pAkt expression in colon” value ([3]; untreated and DSS-treated colon) was “decreased”.

In the case of `COC[C@H]1OC(=O)c2coc3c2[C@@]1(C)C1=C(C3=O)[C@@H]2CCC(=O)[C@@]2(C)C[C@H]1OC(C)=O` [wortmannin, Wortmannin], the “mean DAI score” value [4] is reported as 2.

With Z-DEVD-fmk [reference compound] the “induction of apoptosis mediated by the combination of TRAIL and pik3r1 or Akt1 siRNA” value ([5]; KM20 cells pretreated with the caspase-3 inhibitor) was “completely blocked”.

B1: TNF-related apoptosis-inducing ligand (protein, UniProt P50591 1-281, looked up)
Tumor necrosis factor ligand …: MAMMEVQGGPSLGQTCVLIVIFTVLLQSLCVAVTYVYFTNELKQMQDKYSKSGIACFLKEDDSYWDPNDEESMNSPCWQVKWQLRQLVRKMILRTSEETISTVQEKQQNISPLVRERGPQRVAAHITGTRGRSNTLSSPNSKNEKALGRKINSWESSRSGHSFLSNLHLRNGELVIHEKGFYYIYSQTYFRFQEEIKENTKNDKQMVQYIYKYTSYPDPILLMKSARNSCWSKDAEYGLYSIYQGGIFELKENDRIFVSVTNEHLIDMDHEASFFGAFLVG
notes: apoptosis-inducing agent
B1 was tested, and the “effect of TRAIL alone on cell growth” value [6] was “no effect” and the “effect of TRAIL alone on cell growth” value ([5]; KM20 cells) was “no effect”.
